What was measured:
Assay type in all cases: cell-based, murine
NF-κB = NF-κB reporter assay (SEAP), RAW-Blue cells; conditions: compound 1h 2.5-40 μM, LPS 24 h
Protocol: (A) RAW 264.7 macrophages (5×10^5/ml) or (B) J774A.1 macrophages (5×10^5/ml) were incubated with compound 1h or DMSO for 30 min followed by LPS (1 μg/ml) stimulating for 20 min, then the phosphorylation levels of IKK-α and IκB-α and total IκB-α protein level were analyzed by Western blot. (C) RAW 264.7 macrophages (5×10^5/ml) or (D) J774A.1 macrophages (5×10^5/ml) were incubated with compound 1h (10-40 μM) or DMSO for 30 min followed by LPS (1 μg/ml) stimulating for 20 min, then the nuclear translocation of NF-κB were analyzed by ELISA. (E) RAW-Blue™ cells (5×10^5/ml) were incubated with compound 1h (2.5-40 μM) or DMSO for 30 min followed by LPS (1 μg/ml) stimulating for 24 h, then the SEAP activity was measured by QUANTI-Blue™. […] In (C), (D), and (E), the data are expressed as the mean±SD for three separate experiments. *, **, and *** indicate a significant difference at the level of p<0.05, p<0.01, and p<0.001 respectively compared to LPS group.
RAW-Blue™ cells, RAW 264.7 macrophages which stably express a secreted embryonic alkaline phosphatase (SEAP) gene inducible by NF-κB, were seeded in 60 mm dishes at a density of 5×10^5 cells/ml, and grown overnight in a 5% CO2 incubator at 37° C. […] Results of the SEAP activity were assessed by measuring the optical density at 655 nm using an ELISA reader.

ROS = assay: Intracellular ROS production, LPS-activated RAW 264.7 macrophages; conditions: compound 1h 20 μM, NAC 10 mM, 30 min before LPS
Protocol: In (A), RAW 264.7 macrophages (5×10^5/ml) were incubated with compound 1h (20 μM), N-acetyl cysteine (NAC; 10 mM) or DMSO (vehicle) for 30 min followed by LPS (1 μg/ml) stimulating for the indicated time, then ROS levels were measured by detection of the fluorescence intensity of the fluorophore carboxyl-DCF and expressed relative to those at time zero. In (B), RAW 264.7 macrophages (5×10^5/ml) were incubated with compound 1h (20 μM) or DMSO for 30 min followed by LPS (1 μg/ml) stimulating for 0-60 min, then the phosphorylation levels of ERK1/2, JNK1/2, p38 were analyzed by Western blot. In (C), J774A.1 macrophages (5×10^5/ml) were incubated with compound 1h or DMSO for 30 min followed by LPS (1 μg/ml) stimulating for 20 min, then the phosphorylation levels of ERK1/2, JNK1/2, p38 were analyzed by Western blot.
Intracellular ROS stimulated by LPS was measured by detecting the fluorescence intensity of the 2′,7′-dichlorofluorescein diacetate (H2DCFDA) oxidized product (DCF) (Molecular Probes, Eugene, Oreg.). […] The relative fluorescence intensity of fluorophore DCF, formed by peroxide oxidation of the non-fluorescent precursor, was detected at an excitation wavelength of 485 nm and an emission wavelength of 530 nm with a microplate absorbance reader (Bio-Rad Laboratories, Inc).

COX-2 = assay: Western blot of COX-2 protein in LPS-activated RAW 264.7 macrophages
Protocol: In (A) and (C), cells (5×10^5/ml) were incubated with polyenylpyrrole derivatives or DMSO (vehicle) for 30 min followed by stimulating with LPS (1 μg/ml) for 24 h, then NO (A), IL-6 and TNF-α (C) concentration in culture medium were assayed by Griess reaction and ELISA, respectively. In (B), cells (5×10^5/ml) were pretreated with polyenylpyrrole derivatives or DMSO for 30 min followed by stimulating with LPS (1 μg/ml) for 24 h, then the protein expression of iNOS and COX-2 were assayed by Western blot.
Whole cell lysates were separated by SDS-PAGE and electrotransferred to a PVDF membrane. The membranes were incubated in blocking solution—5% nonfat milk in phosphate buffered saline with 0.1% Tween 20—at room temperature for 1 h. Each membrane was incubated with a specific primary antibody at room temperature for 2 h. After washing three times in PBS with 0.1% Tween 20, the membrane was incubated with an HRP-conjugated secondary antibody directed against the primary antibody. The membrane was developed by an enhanced chemiluminescence Western blot detection system.

For O=c1cc(O)cc(/C=C/C=C/C=C/C=C/c2[nH]ccc2Cl)o1 [Compound 1h], the NF-κB transcriptional activity (NF-κB) was “reduced”, the “LPS-stimulated ROS production” value (ROS) was “able to reduce LPS-stimulated ROS production” and the COX-2 expression (COX-2) was “did not affect”.

Reference: patent publication US9475789B2, “Use of polyenylpyrrole derivatives for treating inflammation” (WELLHEAD BIOLOGICAL TECHNOLOGY CORP., priority 2014, dated 2016)
